Source: patent US10314847B2, “Scalarane sesterterpenoid, pharmaceutical composition and topoisomerase II and Hsp90 inhibitor for treating cancer, and use and preparation method thereof” (NATIONAL DONG HWA UNIVERSITY, priority 2017, dated 2019)

Target: T1, Hsp90 protein (PDB ID: 1YET) (Homo sapiens, UniProt P07900)
T1 construct: Compound 1 could be docked to the N-terminal domain of Hsp90
Assay: Molecular docking (Autodock 4.2)
From the text: It is known that mitochondria are critical intracellular loci of ROS production and ROS exposure can lead to the […] opening. The antioxidant, microsomal GST1, in the inner mitochondrial membrane can interact with the mitochondrial permeability transition (MPT) regulator proteins, such as ANT and/or CypD, to form a MPT pore contributing to mitochondria-mediated cell death. In addition, mitochondrial homeostasis of tumor cells is regulated by an organelle-specific Hsp90 chaperone network.

## CC[C@@]1(C)CCC[C@]2(C)[C@H]3C[C@@H](OC(=O)C[C@@H](C)O)[C@]4(C)[C@@H](C=O)C(C(C)=O)=CC[C@H]4[C@]3(C)CC[C@@H]12 (relative stereo) [Compound 1, 12β-(3′β-hydroxybutanoyloxy)-20,24-dimethyl-24-oxo-scalara-16-en-25-al]
  Potency of Hsp90 inhibition constant relative to 17-AAG: > 1430 folds
